The values below come from patent US4904593A (priority 1986, dated 1990).

Like-named read-outs stand apart in the source and are kept apart here.

The subject of assay [1] is purified esterase. Description: Hydrolysis activity of the esterase to substrates, pH-stat (Example 6, Table 1). The class given is biochemical, Bacillus sp. DC-1. Conditions: 100 mM Tris-HCl pH 9.0, emulsified with 0.2% polyvinyl alcohol, ethyl butyrate = 100. The method, then:
(§1) Also, the hydrolysis activities of the present esterase to choline ester, cholesterol ester, and thiol ester were determined.
(§2) In Table 1, the hydrolysis activity is expressed in relative activity (%) based on the hydrolysis activity of the present esterase to ethyl butyrate taken as 100. Each substrate was used after it was emulsified with 0.2% polyvinyl alcohol. In Table 2, hydrolysis activities to choline ester and cholesterol ester were observed by the use of the Cholinesterase B-test (Wako) and Free-Cholesterol B-test (Wako), respectively, and hydrolysis activity to thiol ester was based on increase in absorbance at 412 nm with a spectrophotometer in which glutathione, a standard substance, and 5,5'-dithiobis(2-nitrobenzoic acid) (DTNB) were employed. The activity is expressed in mole numbers of choline, cholesterol, and CoA to be liberated per minute.

The subject of assay [2] is purified esterase. The assay can be described thus: Hydrolysis activity to thiol ester, DTNB absorbance at 412 nm (Table 2). The class given is biochemical, Bacillus sp. DC-1. Conditions: for Activity: substrate 50 μM, CoA liberated per minute; for Substrate specificity (esterase active or not): summary of properties, thiol esters. Here is the method: as §1, §2
The subject of assay [3] is purified esterase. Description: Hydrolysis activity to cholesterol ester, Free-Cholesterol B-test (Table 2). Format: biochemical, Bacillus sp. DC-1. Conditions: substrate 1,300 μM; cholesterol liberated per minute. Here is the method: as §1, §2
Assay [4] deals with purified esterase. The class given is biochemical, Bacillus sp. DC-1.
The subject of assay [5] is esterase from Pseudomonas aeruginosa. Conditions: cited from earlier work.

`CCCCCCCCCCCCCCCC(=O)OCC(CO)OC(=O)CCCCCCCCCCCCCCC` (centres unmarked) [1,2-dipalmitoyl glycerol]: the “Relative activity (%)” value in assay [1] (substrate 5 mM) turned out to be 0.2%.

`CCCCCCCCCCCCCCCC(=O)OCC(O)COC(=O)CCCCCCCCCCCCCCC` [1,3-dipalmitoyl glycerol]: the “Relative activity (%)” value in assay [1] (substrate 2 mM) was found to be 0%.

Regarding `CCCCCCCCCCCCCCCC(=O)OCC(O)CO` (centres unmarked) [1-palmitoyl glycerol], in assay [1] (substrate 5 mM), the “Relative activity (%)” value is listed as 3.0%.

With `CC(=O)SCCNC(=O)CCNC(=O)[C@H](O)C(C)(C)COP(=O)(O)OP(=O)(O)OC[C@H]1O[C@@H](n2cnc3c(N)ncnc32)[C@H](O)[C@@H]1OP(=O)(O)O` [Acetyl CoA], in assay [2], the “Activity” value amounted to 0 nmol/min and the “Substrate specificity (esterase active or not)” value is “not”.

Turning to `CC(=O)O[C@H]1CC[C@@]2(C)C(=CC[C@H]3[C@@H]4CC[C@H]([C@H](C)CCCC(C)C)[C@@]4(C)CC[C@@H]32)C1` [Cholesterol acetate], the “Activity” value in assay [3] stood at 0 nmol/min.

On to `CCCCC/C=C\C/C=C\CCCCCCCC(=O)O[C@H]1CC[C@@]2(C)C(=CC[C@H]3[C@@H]4CC[C@H]([C@H](C)CCCC(C)C)[C@@]4(C)CC[C@@H]32)C1` [Cholesterol linolate], for which the “Activity” value in assay [3] amounted to 0 nmol/min.

In the case of `CCCC(=O)OCC` [Ethyl butyrate], in assay [1] (substrate 20 mM), the “Relative activity (%)” value is 100.0%.

As for `CCCCCCCCCCCCCCCC(=O)OC(C)C` [Isopropyl palmitate], the “Relative activity (%)” value in assay [1] (substrate 20 mM) came out at 1.7%.

As for `O=S(=O)(F)Cc1ccccc1` [PMSF, phenylmethylsulfonylfluoride], in assay [4], the “Inactivation of the esterase” value is on record as “Completely inactivated”. Further, in assay [4] (80 µM), the “Remaining activity(%)” value amounted to 1.5%.

Take `CCCCCCCCCCCCCCCC(=O)SCCNC(=O)CCNC(=O)[C@H](O)C(C)(C)COP(=O)(O)OP(=O)(O)OC[C@H]1O[C@@H](n2cnc3c(N)ncnc32)[C@H](O)[C@@H]1OP(=O)(O)O` [Palmitoyl CoA]: in assay [2], the “Activity” value amounted to 5.4 nmol/min and the “Substrate specificity (esterase active or not)” value was “Active”.

In the case of `C[C@H](CCC(=O)O)[C@H]1CC[C@H]2[C@@H]3CC[C@@H]4C[C@H](O)CC[C@]4(C)[C@H]3C[C@H](O)[C@]12C` [Sodium deoxycholate], the “Remaining activity(%)” value in assay [4] came out at 76.2%. In addition, in assay [4] (purified esterase, pH 9, 10 min, 1000 µM), the Decrease of activity result is reported as “about 25%”.

With `CCCCCCCCCCCCOS(=O)(=O)[O-].[Na+]` [Sodium lauryl sulfate], the “Remaining activity(%)” value in assay [4] is listed as 32.2%. Also, the “Decrease of activity (inactivation)” value in assay [4] (purified esterase, pH 9, 10 min, 5000 µM) is recorded as “about 70%”. Moreover, the “Inactivation of the esterase from Pseudomonas aeruginosa” value in assay [5] is on record as “not inactivated”.

For the molecule `CC(=O)OCC(COC(C)=O)OC(C)=O` [Triacetin], the “Relative activity (%)” value in assay [1] (substrate 20 mM) amounted to 14.1%.

For `CCCC(=O)OCC(COC(=O)CCC)OC(=O)CCC` [Tributylin], the “Relative activity (%)” value in assay [1] (substrate 20 mM) came to 56.6%.

Consider `CCCCCCCCCCCCCCCC(=O)OCC(COC(=O)CCCCCCCCCCCCCCC)OC(=O)CCCCCCCCCCCCCCC` [Tripalmitin], for which, in assay [1] (substrate 6 mM), the “Relative activity (%)” value is reported as 1.1%.

Turning to Tritonx-100, the “Remaining activity(%)” value in assay [4] is 101.5%.

As to Tween-80, the “Remaining activity(%)” value in assay [4] was determined as 130.8%.
